Results published in a melting point compilation (Tetko et al.).

melting point | SMILES
313 to 315 °C | O=Cc1ccc(-c2ccc(C(=O)O)cc2)o1
77 to 79 °C | CC(C(=O)O)c1ccc2c(c1)OCCO2 (configuration not stated)
49 to 51 °C | CCOc1ccc2ccccc2c1CO
183 to 185 °C | CC(=O)CC(=O)Nc1ccc(NC(=O)C2CC2)cc1
73 to 75 °C | OC1(Cc2ccc(F)cc2)CCNC1 (configuration not stated)
131 to 133 °C | COc1ccc(S(=O)(=O)NCC(=O)O)cc1
158 to 160 °C | COCCNC(=O)C1CCNCC1
248 to 250 °C | O=c1cc(-c2cccc(Cl)c2)[nH]c(=O)[nH]1
161 to 165 °C | Nc1nc(-c2cc(Cl)ccc2Cl)cs1
198 to 200 °C | O=C(O)c1cc(Cl)ccc1-n1cnnn1
189 to 191 °C | O=Cc1cn2cccnc2n1
157 to 161 °C | Cn1c(S)nnc1Cc1cccs1
80 to 82 °C | OC1CCN(c2cncc(Cl)n2)C1 (configuration not stated)
144 to 146 °C | O=C(O)c1cccc(-c2ccoc2)c1
64 to 66 °C | COc1ccc(C(C)=O)cc1CSc1nnnn1C
91 to 93 °C | N#Cc1ccc(F)c(Cn2ccnc2)c1
75 to 77 °C | Cc1cc(-n2c(C)cc(C=O)c2C)no1
104 to 106 °C | O=c1oc2ccccc2n1CCO
129 to 131 °C | CCN(CC)CCn1c(N)nc2ccccc21
192 to 194 °C | O=C(O)c1csc(-c2ccccc2Cl)n1
181 to 183 °C | O=Cc1sc(N2CCOCC2)nc1-c1ccccc1
56 to 58 °C | COC(=O)c1ccc(Cl)nc1Cl
157 to 159 °C | Cn1cc(C(=O)O)c(C2CCCCC2)n1

melting point | SMILES
229 to 231 °C | O=C(O)CCc1nc2ccccc2[nH]1
162 to 164 °C | O=C(O)C=Cc1cc(Cl)ccc1OCc1ccc(Cl)cc1
221 to 223 °C | COc1cc(C(=O)O)ccc1OCc1ccc(Cl)cc1
109 to 111 °C | CNC(=O)c1c(C)cccc1N
250 to 252 °C | Cn1c(C(=O)O)c(Cl)c2cc(Br)ccc21
37 to 39 °C | CC(C)Cc1ccc(C(=O)CBr)cc1
94 to 96 °C | O=S(=O)(Cl)c1ccccc1-c1ccccc1
224 to 226 °C | O=C(O)c1n[nH]c(=O)[nH]c1=O
215 to 217 °C | CCCc1c(C(=O)O)[nH]c(C)c1C(=O)OC
118 to 120 °C | NS(=O)(=O)Cc1ccccc1Br
168 to 172 °C | C#CCNS(=O)(=O)c1cccc(C(=O)O)c1
180 to 182 °C | CC(NC(=O)Nc1ccccc1)C(=O)O (configuration not stated)
139 to 141 °C | O=C(O)c1cn(-c2ccc(Br)cc2C(F)(F)F)nn1
144 to 146 °C | O=C(O)c1cc(S(=O)(=O)Cl)c(Cl)cc1F
113 to 115 °C | O=C(O)c1noc(-c2cccc(F)c2F)n1
303 to 305 °C | O=C(Nc1nncs1)c1ccc(O)cc1
162 to 164 °C | O=C(CCl)N(C1CCCCC1)C1CCS(=O)(=O)C1 (configuration not stated)
177 to 179 °C | Cc1nc(/C=C/C(=O)O)cs1
173 to 175 °C | Cc1cc(Cl)c2c(c1)C(=O)C(=O)N2
149 to 151 °C | O=C(O)c1cnn(-c2ncccc2Cl)c1C(F)(F)F
46 to 48 °C | O=C(CCc1ccccc1Cl)c1ccccc1
79 to 81 °C | N#CCC(=O)c1ccc(Cl)cc1F
94 to 96 °C | FC(F)(F)c1ccc2c(c1)NCCO2

melting point | SMILES
29 to 31 °C | O=C(c1ccc(Cl)c(Cl)c1)C1CC1
271 to 273 °C | Oc1ccccc1-c1nnc2n1CCCCC2
220 to 222 °C | Cc1cc(N)nc(Cl)n1
174 to 176 °C | Cc1nc2c(cnn2C(C)C)c(=O)[nH]1
98 to 100 °C | NC1(C(F)(F)F)CCC(O)CC1 (configuration not stated)
95 to 97 °C | O=C(O)CSCC(=O)c1ccccc1
226 to 228 °C | CC(C)(C)n1ncc2c(=O)[nH]cnc21
73 to 75 °C | c1ccc(N2CCN(CC3CCCNC3)CC2)nc1 (configuration not stated)
168 to 170 °C | NC(=O)NCC1CCCCC1
164 to 166 °C | CCN(CC)S(=O)(=O)c1cccc(C(=O)O)c1
32 to 34 °C | Cc1cc(F)c(N)c(I)c1
128 to 130 °C | COc1ccccc1CNC(=O)n1ccnc1
149 to 151 °C | O=C(CCl)Nc1ncc(Cc2ccc(F)cc2)s1
114 to 116 °C | Nc1ccn(-c2ccc(Cl)cc2Cl)n1
79 to 81 °C | COC1CC(C(=O)O)N(C(=O)OC(C)(C)C)C1 (configuration not stated)
142 to 144 °C | CC(N)c1ccc(NC(=O)NC2CC2)cc1 (configuration not stated)
64 to 66 °C | O=C(Nc1ccccc1)OCCBr
154 to 156 °C | CCN(CC)C(=O)c1ccc(N)cc1Cl
113 to 115 °C | O=C(O)c1noc(-c2cc(Cl)ccc2F)n1
123 to 125 °C | CON(C)S(=O)(=O)c1cc([N+](=O)[O-])ccc1Cl
18 to 20 °C | CC(Cl)C(=O)c1ccc(C(C)(C)C)cc1 (configuration not stated)
158 to 160 °C | Cc1noc2nc(C(C)C)cc(C(=O)O)c12
206 to 208 °C | CN(C)C(=O)c1ccc(S(N)(=O)=O)cc1

melting point | SMILES
169 to 171 °C | N#Cc1cc(Oc2ccc(CC(=O)O)cc2)ccn1
149 to 151 °C | NC(=O)c1ccn(-c2ccccc2)n1
203 to 205 °C | O=c1c2ccccc2oc2ccc([N+](=O)[O-])cc12
112 to 114 °C | O=C(O)CNC(=O)CCC1CCCC1
169 to 171 °C | CCOc1ccc(Nc2nc3ccccc3s2)cc1
101 to 103 °C | Nc1ccc(-c2cccc(C(F)(F)F)c2)cn1
134 to 136 °C | Cc1c(Br)cc(S(C)(=O)=O)cc1C(=O)O
189 to 191 °C | O=C(O)CCC(=O)c1ccc2c(c1)-c1ccccc1C2
61 to 63 °C | Cc1sc2nc(CN3CCCCC3)nc(Cl)c2c1C
59 to 61 °C | CNc1ccc(OCCOC)cc1
105 to 107 °C | OCc1cn(-c2cccc(Cl)c2Cl)nn1
56 to 58 °C | COc1cccc(-c2noc(Cl)n2)c1
205 to 207 °C | CC(C)c1ccc(-c2nnc(N)s2)cc1
66 to 68 °C | O=C(O)C1CCCN(C(=O)N2CCc3sccc3C2)C1 (configuration not stated)
218 to 220 °C | OCc1cc(I)c(CO)cc1I
211 to 213 °C | Cc1nc(S)c2ccccc2n1
133 to 135 °C | CN(C(=O)OC(C)(C)C)c1ccc(O)cc1
68 to 70 °C | O=S(=O)(Cl)c1cc(Br)ccc1F
176 to 178 °C | NNC(=O)Cn1ccc2ccccc21
123 to 125 °C | CC(C)(C)OC(=O)NCC1(C(=O)O)CCCC1
114 to 116 °C | Cc1cc(NC(=O)C2CCCCC2C(=O)O)[nH]n1 (configuration not stated)
75 to 77 °C | O=C(CCCl)Nc1cccc([N+](=O)[O-])c1
147 to 149 °C | Nc1ccc(N2CCNC(=O)C2)c(Cl)c1

melting point | SMILES
177 to 179 °C | Cc1ccc(S(=O)(=O)NC(C(=O)O)C(C)O)cc1 (configuration not stated)
40 to 42 °C | NC(c1ccccc1)c1ccncc1 (configuration not stated)
107 to 109 °C | Nc1cccc(S(=O)(=O)Nc2cccc(Cl)c2)c1
90 to 92 °C | OCc1sc2ccccc2c1Cl
195 to 197 °C | N#Cc1c(N2CCOCC2)n[nH]c1N
148 to 150 °C | NS(=O)(=O)c1cccc(I)c1
235 to 237 °C | O=C(O)c1cc(-c2ccccc2)nc2cccc(Br)c12
73 to 75 °C | CC(C)(C)c1ccc2c(c1)C(O)CC2 (configuration not stated)
160 to 163 °C | Cc1n[nH]c(C)c1S(=O)(=O)N(C)Cc1ccco1
162 to 164 °C | NC(=O)c1cccc(Oc2ccc(N)nc2)c1
208 to 210 °C | Cc1c(Cl)ccc(C(=O)O)c1N
88 to 90 °C | Cc1ccc(C(=O)C(O)c2ccc(C)cc2)cc1 (configuration not stated)
175 to 180 °C | Cc1cc(-n2c(C)cc(C(=O)O)c2C)no1
229 to 231 °C | Cc1ccnc(O)c1C(=O)O
279 to 281 °C | Cc1c(C(=O)O)cnc2c1c(=O)n(C)c(=O)n2C
226 to 228 °C | CNS(=O)(=O)c1cc(C(=O)O)ccc1Cl
191 to 193 °C | O=C(O)CNC(=O)/C=C/c1ccccc1
71 to 73 °C | Fc1ccc(NCc2ccccn2)cc1
117 to 119 °C | C=CC(=O)Nc1cccc(C#N)c1
127 to 129 °C | Nc1cccc(Cn2nc3ccccn3c2=O)c1
116 to 118 °C | CC1CCC(NS(=O)(=O)CC(=O)O)CC1 (configuration not stated)
229 to 231 °C | O=C1NC(=O)C2(CCc3ccccc32)N1 (configuration not stated)
257 to 259 °C | Nc1c(C(=O)O)nnc2ccccc12

melting point | SMILES
124 to 126 °C | CC(C)c1cnc(S)n1C
235 to 237 °C | Cc1c(C(=O)O)sc2ccsc12
125 to 127 °C | O=C(CCl)NCC(=O)N1CCCC1
128 to 130 °C | Nc1ccc(F)c(S(=O)(=O)N2CCOCC2)c1
181 to 183 °C | N#CCC(=O)Nc1ccncc1
295 to 297 °C | O=C(O)Cn1c(=O)[nH]c2ccccc2c1=O
178 to 180 °C | NNC(=O)c1ccc(NS(=O)(=O)c2cccs2)cc1
245 to 247 °C | Cn1cc(C(N)C(=O)O)cn1 (configuration not stated)
64 to 66 °C | Cc1ccc(O)c(C=O)n1
304 to 306 °C | O=C(O)c1cc(O)nc2ccc(S(=O)(=O)N3CCOCC3)cc12
158 to 165 °C | NC(=O)Cc1csc(N)n1
271 to 273 °C | O=C(O)c1c[nH]c2c(Br)ccc(Br)c2c1=O
169 to 171 °C | Cc1ccc(C(=O)Nc2cccc(C(F)(F)F)c2)cc1O
112 to 114 °C | COc1ccc(-c2nc3c(s2)C(=O)CCC3)cc1
160 to 162 °C | CCOc1cccc2c1OCC(C(=O)O)C2 (configuration not stated)
37 to 39 °C | O=C(c1cccc(F)c1)c1ccccn1
207 to 209 °C | Cc1ccc(NS(=O)(=O)c2ccc(Cl)c(C(=O)O)c2)cc1C
282 to 284 °C | Cc1nc2c(C(N)=O)cnn2c(C)c1CCC(=O)O
149 to 151 °C | NNc1cccnc1Cl
190 to 192 °C | CC(C)(C)OC(=O)Nc1ccc(C(F)(F)F)cc1C(=O)O
35 to 37 °C | O=[N+]([O-])c1ccn(CCCBr)n1
218 to 220 °C | NS(=O)(=O)c1ccc(F)cc1C(=O)O
166 to 168 °C | NS(=O)(=O)c1cnccn1

SMILES | melting point
[N-]=[N+]=Nc1ccc(I)cc1 | 33 to 35 °C
Cc1nn(Cc2ccccc2)c(Cl)c1C(=O)O | 180 to 182 °C
Cc1ccc(-c2nn(CCC#N)cc2C(=O)O)cc1C | 174 to 176 °C
Cc1ccccc1C(O)CN (configuration not stated) | 88 to 90 °C
